Numbering of substitutions follows the chain as printed. Activity calls are given as the source filed them. No cut-off for these calls is given here.
How the values were obtained:
[1] = molecular target: T1, 4,4'-diapophytoene desaturase (4,4'-diaponeurosporene-forming) (Staphylococcus aureus (strain Newman), UniProt O07855); experiment: Inhibition of CrtN in Staphylococcus aureus Newman assessed as reduction in staphyloxanthin levels after 48 hrs by spectrophotometric method-based pigment inhibition assay; set-up: species or system Staphylococcus aureus subsp. aureus str. Newman
T1 sequence (O07855 whole entry): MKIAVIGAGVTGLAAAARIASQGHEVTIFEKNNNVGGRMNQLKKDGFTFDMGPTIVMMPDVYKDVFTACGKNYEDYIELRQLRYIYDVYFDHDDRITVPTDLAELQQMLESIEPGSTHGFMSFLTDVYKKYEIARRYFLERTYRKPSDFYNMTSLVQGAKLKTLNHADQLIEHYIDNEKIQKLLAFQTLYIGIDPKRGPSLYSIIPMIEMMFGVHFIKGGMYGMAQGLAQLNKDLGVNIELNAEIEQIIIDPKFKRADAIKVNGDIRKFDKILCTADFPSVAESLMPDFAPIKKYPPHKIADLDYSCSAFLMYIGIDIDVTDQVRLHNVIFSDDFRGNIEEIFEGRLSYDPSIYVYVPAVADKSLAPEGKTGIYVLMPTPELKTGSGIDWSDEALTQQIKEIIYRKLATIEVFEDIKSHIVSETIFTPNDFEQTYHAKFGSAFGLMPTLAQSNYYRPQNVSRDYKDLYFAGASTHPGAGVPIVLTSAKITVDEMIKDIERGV

[2] = molecular target: T1, 4,4'-diapophytoene desaturase (4,4'-diaponeurosporene-forming); experiment: Inhibition of Staphylococcus aureus Newman […]-tagged CrtN expressed in Escherichia coli BL21(DE3))/pET28a::CrtN assessed as reduction in staphyloxanthin levels using diapophytoene as substrate after overnight incubation; set-up: species or system Staphylococcus aureus subsp. aureus str. Newman
[3] = molecular target: T1, 4,4'-diapophytoene desaturase (4,4'-diaponeurosporene-forming); experiment: Inhibition of CrtN in linezolid-resistant Staphylococcus aureus NRS271 assessed as reduction in staphyloxanthin levels after 48 hrs by spectrophotometric method-based pigment inhibition assay
[4] = system: Staphylococcus aureus; experiment: Growth inhibition of methicillin-resistant Staphylococcus aureus USA300 LAC at 0.2 mM incubated overnight measured at 30 mins interval; format: organism-based; settings: 0.5 h, 200 µM
[5] = system: Staphylococcus aureus; experiment: Growth inhibition of methicillin-resistant Staphylococcus aureus USA400 MW2 at 0.2 mM incubated overnight measured at 30 mins interval; format: organism-based; settings: 0.5 h, 200 µM
[6] = system: Trichophyton rubrum; experiment: Antifungal activity against Trichophyton rubrum after 7 days by broth microdilution method; format: functional, organism-based
[7] = system: Trichophyton mentagrophytes; experiment: Antifungal activity against Trichophyton mentagrophytes after 7 days; format: functional, organism-based
[8] = molecular target: T2, 4,4'-diapophytoene desaturase (4,4'-diaponeurosporene-forming) (Staphylococcus aureus (strain MW2)) (UniProt Q8NUQ6); experiment: Inhibition of CrtN in Staphylococcus aureus USA300 LAC assessed as H2O2-induced bacterial death by measuring reduction in bacterial survival at 1 uM preincubated for 24 hrs followed by H2O2 addition measured after 30 mins by serial dilution method; settings: Staphylococcus aureus subsp. aureus USA300
T2 sequence (whole entry): T1 sequence (O07855 whole entry) with R500Q

[9] = molecular target: T2, 4,4'-diapophytoene desaturase (4,4'-diaponeurosporene-forming) (Staphylococcus aureus (strain MW2)); experiment: Inhibition of CrtN in Staphylococcus aureus USA400 MW2 assessed as H2O2-induced bacterial death by measuring reduction in bacterial survival at 1 uM preincubated for 24 hrs followed by H2O2 addition measured after 30 mins by serial dilution method; settings: Staphylococcus aureus subsp. aureus MW2
[10] = system: Staphylococcus aureus; experiment: Induction of sensitization to immune clearance towards Staphylococcus aureus Mu50 infected in human whole blood assessed as bacterial killing by measuring bacterial survival after 6 hrs by serial dilution method relative to control; format: functional
[11] = system: Staphylococcus aureus; experiment: Induction of sensitization to immune clearance towards Staphylococcus aureus USA300 LAC infected in human whole blood assessed as bacterial killing by measuring bacterial survival after 6 hrs by serial dilution method relative to control; format: functional
[12] = system: Staphylococcus aureus; experiment: Induction of sensitization to immune clearance towards Staphylococcus aureus USA400 MW2 infected in human whole blood assessed as bacterial killing by measuring bacterial survival after 6 hrs by serial dilution method relative to control; format: functional
[13] = system: Staphylococcus aureus; experiment: Antibacterial activity against Staphylococcus aureus Newman infected in BALB/c mouse assessed as reduction of bacterial burden in heart at 0.4 mg, ip bid administered at 12 hrs prior to bacterial infection dosed at 12 intervals for 4.5 days relative to control; format: functional; set-up: scale not given: the % may be the effect or the level left
[14] = system: Staphylococcus aureus; experiment: Antibacterial activity against vancomycin-intermediate Staphylococcus aureus Mu50 infected in BALB/c mouse assessed as reduction of bacterial burden in heart at 0.4 mg, ip bid for 3.5 days administered 6 hrs post bacterial infection measured 84 hrs post infection relative to control; format: functional; set-up: scale not given: the % may be the effect or the level left
[15] = system: Staphylococcus aureus; experiment: Antibacterial activity against vancomycin-intermediate Staphylococcus aureus Mu50 infected in BALB/c mouse assessed as reduction of bacterial burden in liver at 0.1 mg, ip bid administered at 12 hrs prior to bacterial infection dosed at 12 intervals for 4.5 days; format: functional, organism-based
[16] = system: Staphylococcus aureus; experiment: Antibacterial activity against linezolid-resistant Staphylococcus aureus NRS271 infected in BALB/c mouse assessed as reduction of bacterial burden in liver at 0.1 mg, ip bid administered at 12 hrs prior to bacterial infection dosed at 12 intervals for 4.5 days; format: functional, organism-based
[17] = Half life in human liver microsomes at 2 uM by LC-MS/MS analysis; format: ADME, microsome
[18] = Cytotoxicity against human HepG2 cells after 72 hrs by CCK8 assay; format: cell-based
[19] = system: Staphylococcus aureus; experiment: Antibacterial activity against linezolid-resistant Staphylococcus aureus NRS271 infected in BALB/c mouse assessed as reduction of bacterial burden in heart at 0.1 mg, ip bid administered at 24 hrs prior to bacterial infection dosed at 12 intervals for 4.5 days
[20] = system: Staphylococcus aureus; experiment: Antibacterial activity against linezolid-resistant Staphylococcus aureus NRS271 infected in BALB/c mouse assessed as reduction of bacterial burden in heart at 0.4 mg, ip bid administered at 24 hrs prior to bacterial infection dosed at 12 intervals for 4.5 days
[21] = system: Staphylococcus aureus; experiment: Antibacterial activity against Staphylococcus aureus Newman infected in BALB/c mouse assessed as reduction of bacterial burden in liver at 0.1 mg, ip bid for 3.5 days administered 6 hrs post bacterial infection measured 84 hrs post infection relative to control; set-up: scale not given: the % may be the effect or the level left

Molecule `CN(C/C=C/C=C/c1ccc(C(F)(F)F)cc1)Cc1ccc2c(c1)OCCO2.Cl` has an IC50 [1] of 2.2 nM, an IC50 [2] of 270 nM and an IC50 [3] of 0.6 nM. For the same molecule, the “growth inhibition (GI)” value [4] was “Non-Toxic”, the “growth inhibition (GI)” value [5] was “Non-Toxic” and the Activity [6] was “inactive”. The Activity [7] was “inactive”, the inhibition [8] was “Active” and the inhibition [9] was “Active”. For the same molecule, the Survival [10] was <0.5%, the Survival [11] was <0.5% and the Survival [12] was <0.5%. For the same molecule, the Activity [13] was 89.01%, the Activity [14] was 99% and the Activity [15] was “Active”. The Activity [16] was “Active”, the half-life at 2 µM [17] was 7.9 min and the CC50 at 72 h [18] was 67800 nM. The Activity [19] was “Active”, the Activity [20] was “Active” and the Activity [21] was 99%.

From ChEMBL document CHEMBL4251700, “Novel Staphyloxanthin Inhibitors with Improved Potency against Multidrug Resistant Staphylococcus aureus” (ACS Med Chem Lett, 2018)
